Tests used:
[1] = target: T1, BTK (Homo sapiens (Human), UniProt Q06187); assay: Ramos RA1 cell lysis and immunoassay, phospho-BTK (Y223) inhibition; type: cell-based; set-up: key: X: BTK bound and autophosphoration of BTK inhibited in cells; conditions: RAMOS cells
Method: (§1) Ramos RA 1 cells (ATCC) were cultured in RPMI-1640 media (Wisent) supplemented with 10% heat-inactivated FBS and 1% penicillin/streptomycin. Cells were seeded in 6-well plates at 1.71×10^6 cells/well and incubated at 37° C., 5% CO2 for 16 hours. Cells were treated with compound at the indicated concentrations or DMSO alone and incubated at 37° C., 5% CO2 for 24 hours. Cell suspensions were centrifugated at 1,400-1,600 RPM for 5 minutes at room temperature and supernatants were discarded. Cell pellets were resuspended with 1× RIPA buffer (Millipore) and incubated on ice for 15 minutes. Protein lysates were extracted by centrifugating at 20,000 RPM for 20 minutes at 4° C. Proteins were separated and total BTK protein levels were quantified by Simple Western Immunoassay (ProteinSimple) using the 12-230 kDa Jess Separation Module according to the manufacturer's protocol, using a protein concentration of 0.25 μg/μl and antibodies targeting BTK (clone #D3H5, Cell Signalling) and β-Actin (clone #AC-15, Santa Cruz) diluted to 1:400 and 1:10, respectively, where the latter was used as a loading control. An equal ratio of rabbit and mouse HRP-conjugated secondary antibodies was used for detection. BTK protein levels were quantified relative to S-Actin loading levels and subsequently normalized to the DMSO control. Phosphorylated BTK levels were quantified using the Protein Normalization Assay Module for Jess (ProteinSimple) according to the manufacturer's protocol, using a protein concentration of 1.5 μg/μl and an antibody targeting pBTK (Y223) (Cell Signalling) diluted to 1:50. Phosphorylated BTK levels were quantified relative to the Protein Normalization Reagent and subsequently normalized to the DMSO control.

[2] = target: FGFR4 (Homo sapiens (Human), UniProt P22455); assay: HTRF KinEASE-TK kinase assay, FGFR4; type: biochemical; conditions: for IC50: dose response; for remaining activity at 1 µM: read-out: % FGFR4 Remaining activity vs DMSO (1 μM, 3 h); for remaining activity at 10 µM: read-out: % FGFR4 Remaining activity vs DMSO (10 μM, 3 h)
Method: (§2) Kinase activity was monitored using a HTRF® KinEASE-TK kit from Cisbio (62TK0PEC). […] FGFR-4 was purchased from Promega. 0.333 ng/ul FGFR4 (5.12 nM) was preincubated in the absence or presence of inhibitor at room temperature for 3 hours. Reaction with substrate was then initiated by adding biotinylated substrate and ATP. […] The reaction was terminated by adding 31.25 nM SA-XL665 and 100 fold diluted europium labelled antibody (Eu-Ab), diluted in 1× detection buffer that contained EDTA. After 60 min of incubation, the fluorescence emission was measured at 620 nm and 665 nm. The ratio of Em 665 nm to Em 620 nm was proportional to the amount of substrate phosphorylated by the kinase.

[3] = target: T1, BTK; assay: HTRF KinEASE-TK kinase assay, BTK; type: biochemical; conditions: 3 h preincubation; for remaining activity at 1 µM: 1 μM compound, read-out: % BTK Remaining activity vs DMSO (1 μM, 3 h); for remaining activity at 10 µM: 10 μM compound, read-out: % BTK Remaining activity vs DMSO (10 μM, 3 h)
Method: Kinase activity was monitored using a HTRF® KinEASE-TK kit from Cisbio (62TK0PEC). For BTK, the 1× kinase buffer was supplemented with 10 mM MnCl2, 5 mM MgCl2, 1 uM ATPγS, 1 mM TCEP and 100 fold diluted Supplementary Enzyme Buffer. BTK was purchased from Promega. […] Reaction with substrate was then initiated by adding biotinylated substrate and ATP and the reaction was allowed to proceed for 45 min. […] After 60 min of incubation, the fluorescence emission was measured at 620 nm and 665 nm. The ratio of Em 665 nm to Em 620 nm was proportional to the amount of substrate phosphorylated by the kinase.

[4] = target: EGFR (Homo sapiens (Human), UniProt P00533); assay: HTRF KinEASE-TK kinase assay, EGFR; type: biochemical; conditions: 3 h preincubation; for remaining activity at 1 µM: 1 μM compound, read-out: % EGFR Remaining activity vs DMSO (1 μM, 3 h); for remaining activity at 10 µM: 10 μM compound, read-out: % EGFR Remaining activity vs DMSO (10 μM, 3 h)
Method: Kinase activity was monitored using a HTRF® KinEASE-TK kit from Cisbio (62TK0PEC). The buffer used was 1× kinase buffer supplemented with 2 mM MnCl2, 5 mM MgCl2, 1 mM TCEP and 100× diluted Supplementary Enzyme Buffer. EGFR was purchased from Promega. […] Reaction with substrate was then initiated by adding biotinylated substrate and ATP. […] After 60 min of incubation, the fluorescence emission was measured at 620 nm and 665 nm. The ratio of Em 665 nm to Em 620 nm was proportional to the amount of substrate phosphorylated by the kinase.
For initial screening, enzymes were pre incubated with compounds at 2 different concentrations (1 and 10 uM final) and 0.5% DMSO.

[5] = target: BMX (Homo sapiens (Human), UniProt P51813); assay: HTRF KinEASE-TK kinase assay, BMX; type: biochemical; conditions: for remaining activity at 1 µM: 1 uM compound; for remaining activity at 1 µM / remaining activity at 10 µM: 3 h preincubation; for remaining activity at 10 µM: 10 uM compound
Method: as §2, with “BMX” for “FGFR-4”, “BMX (3.03” for “FGFR4 (5.12”, “The reaction” for “Reaction”, “Reaction” for “The reaction”

[6] = target: JAK3 (Homo sapiens (Human), UniProt P52333); assay: HTRF KinEASE-TK kinase assay, JAK3; type: biochemical; conditions: for IC50: dose response; for remaining activity at 1 µM: read-out: % JAK3 Remaining activity vs DMSO (1 μM, 3 h); for remaining activity at 10 µM: read-out: % JAK3 Remaining activity vs DMSO (10 μM, 3 h)
Method: as §2, with “JAK-3” for “FGFR-4”, “0.0133” for “0.333”, “JAK3 (0.21” for “FGFR4 (5.12”

[7] = target: RIPK2 (Homo sapiens (Human), UniProt O43353); assay: In vitro RIPK2 inhibition; type: biochemical
[8] = target: T1, BTK; assay: Ramos RA1 cell lysis and immunoassay, total BTK degradation; type: cell-based; set-up: key to % BTK degradation (RAMOS, 24 h): Y: BTK bound in cells and BTK degradation occurred; concentration or dose not given beside the values; conditions: RAMOS cells
Method: as §1

JAK3, sequence (P52333 781-1124): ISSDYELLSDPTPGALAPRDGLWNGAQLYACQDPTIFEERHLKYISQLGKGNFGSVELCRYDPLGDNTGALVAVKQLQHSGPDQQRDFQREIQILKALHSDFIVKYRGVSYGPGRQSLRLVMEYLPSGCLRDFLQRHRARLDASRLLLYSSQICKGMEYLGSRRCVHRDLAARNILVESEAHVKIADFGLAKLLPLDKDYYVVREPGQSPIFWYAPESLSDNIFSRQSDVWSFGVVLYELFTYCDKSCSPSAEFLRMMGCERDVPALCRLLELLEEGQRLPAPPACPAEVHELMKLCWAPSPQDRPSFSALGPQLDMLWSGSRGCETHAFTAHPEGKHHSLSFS
FGFR4, sequence (P22455 22-802): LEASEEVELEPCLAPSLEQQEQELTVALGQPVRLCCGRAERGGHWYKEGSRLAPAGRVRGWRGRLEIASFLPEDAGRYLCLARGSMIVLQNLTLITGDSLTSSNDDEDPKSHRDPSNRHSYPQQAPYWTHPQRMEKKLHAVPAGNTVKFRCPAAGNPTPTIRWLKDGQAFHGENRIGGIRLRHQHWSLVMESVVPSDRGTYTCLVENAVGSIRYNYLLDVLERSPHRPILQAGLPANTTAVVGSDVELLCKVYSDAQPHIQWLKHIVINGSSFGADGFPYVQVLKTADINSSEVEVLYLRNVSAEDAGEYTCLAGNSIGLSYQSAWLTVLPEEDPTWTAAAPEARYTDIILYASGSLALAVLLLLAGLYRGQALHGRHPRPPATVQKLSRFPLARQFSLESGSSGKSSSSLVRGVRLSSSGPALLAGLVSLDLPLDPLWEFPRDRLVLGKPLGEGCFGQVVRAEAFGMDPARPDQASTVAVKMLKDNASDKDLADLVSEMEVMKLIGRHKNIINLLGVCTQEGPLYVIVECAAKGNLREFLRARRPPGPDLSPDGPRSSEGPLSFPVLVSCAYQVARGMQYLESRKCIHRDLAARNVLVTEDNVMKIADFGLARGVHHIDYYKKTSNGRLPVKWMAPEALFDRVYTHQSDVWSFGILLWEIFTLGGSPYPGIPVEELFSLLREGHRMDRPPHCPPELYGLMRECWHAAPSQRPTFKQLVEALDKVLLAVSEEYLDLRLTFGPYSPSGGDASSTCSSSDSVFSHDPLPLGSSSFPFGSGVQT
T1 sequence (Q06187 whole entry): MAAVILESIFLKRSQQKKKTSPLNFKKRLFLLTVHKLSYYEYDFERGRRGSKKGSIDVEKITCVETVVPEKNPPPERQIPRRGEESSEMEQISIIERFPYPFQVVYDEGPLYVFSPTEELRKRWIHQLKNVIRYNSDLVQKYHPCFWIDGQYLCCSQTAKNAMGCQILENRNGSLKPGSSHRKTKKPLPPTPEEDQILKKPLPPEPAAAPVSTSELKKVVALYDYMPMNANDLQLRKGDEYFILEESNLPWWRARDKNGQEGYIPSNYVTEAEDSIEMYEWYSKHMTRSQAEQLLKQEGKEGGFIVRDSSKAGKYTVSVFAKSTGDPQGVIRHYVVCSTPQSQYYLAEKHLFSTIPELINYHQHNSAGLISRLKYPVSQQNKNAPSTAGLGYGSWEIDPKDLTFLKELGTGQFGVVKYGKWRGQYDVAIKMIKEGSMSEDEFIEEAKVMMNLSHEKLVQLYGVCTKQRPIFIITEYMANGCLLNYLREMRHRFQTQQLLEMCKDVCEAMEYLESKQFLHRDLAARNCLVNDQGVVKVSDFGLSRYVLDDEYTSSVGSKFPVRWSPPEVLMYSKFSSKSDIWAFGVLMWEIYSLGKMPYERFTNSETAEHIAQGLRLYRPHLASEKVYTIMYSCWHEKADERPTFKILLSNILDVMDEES
BMX, sequence (P51813 whole entry): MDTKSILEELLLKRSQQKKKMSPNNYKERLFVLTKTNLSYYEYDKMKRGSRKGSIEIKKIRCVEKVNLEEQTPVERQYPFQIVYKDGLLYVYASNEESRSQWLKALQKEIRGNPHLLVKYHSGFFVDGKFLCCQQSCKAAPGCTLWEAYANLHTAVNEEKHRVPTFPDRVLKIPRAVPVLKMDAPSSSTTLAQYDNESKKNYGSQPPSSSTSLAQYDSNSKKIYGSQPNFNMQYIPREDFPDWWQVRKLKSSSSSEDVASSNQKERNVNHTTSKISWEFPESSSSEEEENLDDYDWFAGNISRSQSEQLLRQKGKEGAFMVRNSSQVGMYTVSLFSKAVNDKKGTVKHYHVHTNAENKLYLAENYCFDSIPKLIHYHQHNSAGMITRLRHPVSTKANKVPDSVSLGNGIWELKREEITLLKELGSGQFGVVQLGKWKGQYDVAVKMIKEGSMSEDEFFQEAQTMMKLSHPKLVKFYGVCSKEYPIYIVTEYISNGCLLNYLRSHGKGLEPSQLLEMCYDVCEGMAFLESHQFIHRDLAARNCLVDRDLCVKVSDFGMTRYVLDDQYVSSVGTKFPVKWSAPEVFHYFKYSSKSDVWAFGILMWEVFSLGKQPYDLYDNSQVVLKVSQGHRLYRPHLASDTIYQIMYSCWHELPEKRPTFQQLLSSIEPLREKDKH
EGFR, sequence (P00533 25-1210): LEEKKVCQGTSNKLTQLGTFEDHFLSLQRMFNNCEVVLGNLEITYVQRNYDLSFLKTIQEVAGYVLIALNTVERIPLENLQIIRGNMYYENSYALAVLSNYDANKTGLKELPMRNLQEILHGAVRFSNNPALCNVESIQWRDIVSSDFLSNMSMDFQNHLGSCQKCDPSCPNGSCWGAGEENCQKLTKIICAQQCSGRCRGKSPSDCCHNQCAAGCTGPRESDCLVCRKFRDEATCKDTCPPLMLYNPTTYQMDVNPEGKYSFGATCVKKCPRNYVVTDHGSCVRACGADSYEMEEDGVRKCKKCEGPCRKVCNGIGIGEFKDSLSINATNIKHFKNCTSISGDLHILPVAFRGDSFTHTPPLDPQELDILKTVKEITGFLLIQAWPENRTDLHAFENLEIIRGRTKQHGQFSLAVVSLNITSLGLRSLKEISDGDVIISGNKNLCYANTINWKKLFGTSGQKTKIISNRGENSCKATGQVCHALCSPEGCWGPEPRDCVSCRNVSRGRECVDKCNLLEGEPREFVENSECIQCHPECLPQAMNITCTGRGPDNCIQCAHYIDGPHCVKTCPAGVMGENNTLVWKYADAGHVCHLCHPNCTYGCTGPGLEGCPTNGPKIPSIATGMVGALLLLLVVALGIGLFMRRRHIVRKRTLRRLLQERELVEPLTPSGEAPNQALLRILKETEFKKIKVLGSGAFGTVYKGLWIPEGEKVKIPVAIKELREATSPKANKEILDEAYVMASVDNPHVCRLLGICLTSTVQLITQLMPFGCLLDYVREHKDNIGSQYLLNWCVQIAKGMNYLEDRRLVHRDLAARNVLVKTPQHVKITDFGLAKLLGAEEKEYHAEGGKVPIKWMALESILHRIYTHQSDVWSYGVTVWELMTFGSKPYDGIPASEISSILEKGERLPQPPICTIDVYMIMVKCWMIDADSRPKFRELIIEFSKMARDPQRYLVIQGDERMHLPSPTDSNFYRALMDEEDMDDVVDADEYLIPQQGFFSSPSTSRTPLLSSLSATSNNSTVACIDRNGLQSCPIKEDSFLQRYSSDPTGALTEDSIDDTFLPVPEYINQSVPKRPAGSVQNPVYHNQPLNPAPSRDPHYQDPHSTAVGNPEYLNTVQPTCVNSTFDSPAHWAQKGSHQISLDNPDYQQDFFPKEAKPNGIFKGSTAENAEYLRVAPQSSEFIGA
RIPK2, sequence (O43353 whole entry, species assumed): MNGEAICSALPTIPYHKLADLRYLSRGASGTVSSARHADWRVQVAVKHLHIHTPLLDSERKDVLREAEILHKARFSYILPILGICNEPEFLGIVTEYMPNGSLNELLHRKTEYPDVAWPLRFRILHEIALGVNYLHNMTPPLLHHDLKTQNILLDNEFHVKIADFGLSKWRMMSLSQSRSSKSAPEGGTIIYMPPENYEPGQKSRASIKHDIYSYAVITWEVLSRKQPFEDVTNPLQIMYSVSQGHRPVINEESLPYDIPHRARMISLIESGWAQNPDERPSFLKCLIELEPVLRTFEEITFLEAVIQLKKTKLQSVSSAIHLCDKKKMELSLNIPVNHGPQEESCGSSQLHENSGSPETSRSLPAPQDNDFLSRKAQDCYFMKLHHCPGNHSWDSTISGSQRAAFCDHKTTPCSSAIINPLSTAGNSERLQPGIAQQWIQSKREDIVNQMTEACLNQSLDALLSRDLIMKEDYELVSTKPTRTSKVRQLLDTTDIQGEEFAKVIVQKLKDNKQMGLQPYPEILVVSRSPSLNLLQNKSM

Structure (SMILES)	IC50 [2] [µM]	remaining activity at 1 µM [2] [%]	remaining activity at 10 µM [2] [%]	remaining activity at 1 µM [3] [%]	remaining activity at 10 µM [3] [%]	remaining activity at 1 µM [4] [%]	remaining activity at 10 µM [4] [%]	remaining activity at 1 µM [5] [%]	remaining activity at 10 µM [5] [%]	IC50 [6] [µM]	remaining activity at 1 µM [6] [%]	remaining activity at 10 µM [6] [%]	pBTK inhibition (RAMOS, 24 h) ([1]; compound concentration 1 μM)	further results
COCCOc1ccc(Nc2ncc(F)c(Nc3cccc(NS(=O)(=O)c4c(F)c(F)c(F)c(F)c4OC(F)F)c3)n2)cc1 [Compound I-54, 2-(difluoromethoxy)-3,4,5,6-tetrafluoro-N-(3-((5-fluoro-2-((4-(2-methoxyethoxy)phenyl)amino)pyrimidin-4-yl)amino)phenyl)benzenesulfonamide]	< 1	< 50	< 50	< 50	< 50	> 90	50 to 90	< 50	< 50	> 1	< 50	< 50		pBTK inhibition (RAMOS, 24 h) ([1]; compound concentration 5 μM): X
Nc1ncnc2c1c(-c1ccc(Oc3ccccc3)cc1)nn2C1CCN(S(=O)(=O)c2c(F)c(F)c(F)c(F)c2OC(F)F)C1 (stereo in doubt) [Compound I-26, (R)-1-(1-((2-(difluoromethoxy)-3,4,5,6-tetrafluorophenyl)sulfonyl)pyrrolidin-3-yl)-3-(4-phenoxyphenyl)-1H-pyrazolo[3,4-d]pyrimidin-4-amine]	< 1	< 50	< 50	< 50	< 50	> 90	50 to 90	< 50	< 50		50 to 90	50 to 90	X	IC50 ([5]; dose response): < 1 µM
CS(=O)(=O)c1c(F)c(F)c(F)c(F)c1C(=O)n1ccc2c(N)ncnc21 [Compound I-49, (4-amino-7H-pyrrolo[2,3-d]pyrimidin-7-yl)(2,3,4,5-tetrafluoro-6-(methylsulfonyl)phenyl)methanone]		50 to 90	< 50	50 to 90	< 50	> 90	> 90	50 to 90	< 50		> 90	> 90		remaining activity at 1 µM ([7]; read-out: % RIPK2 Remaining activity vs DMSO (1 μM, 3 h)): < 50%; remaining activity at 10 µM ([7]; read-out: % RIPK2 Remaining activity vs DMSO (10 μM, 3 h)): < 50%; % BTK degradation (RAMOS, 24 h) [8]: Y
COCCOc1ccc(Nc2ncc(F)c(Nc3cccc(NS(=O)(=O)c4c(F)c(F)c(F)c(F)c4C(F)F)c3)n2)cc1 [Compound I-51, 2-(difluoromethyl)-3,4,5,6-tetrafluoro-N-(3-((5-fluoro-2-((4-(2-methoxyethoxy)phenyl)amino)pyrimidin-4-yl)amino)phenyl)benzenesulfonamide]		> 90	< 50	50 to 90	< 50	> 90	> 90	< 50	< 50		> 90	50 to 90		pBTK inhibition (RAMOS, 24 h) ([1]; compound concentration 10 μM): X

Further lines, with some results ahead:

IC50 [2] [µM]	remaining activity at 1 µM [2] [%]	remaining activity at 10 µM [2] [%]	remaining activity at 1 µM [3] [%]	remaining activity at 10 µM [3] [%]	remaining activity at 1 µM [4] [%]	remaining activity at 10 µM [4] [%]	remaining activity at 1 µM [5] [%]	remaining activity at 10 µM [5] [%]	IC50 [6] [µM]	remaining activity at 1 µM [6] [%]	remaining activity at 10 µM [6] [%]	pBTK inhibition (RAMOS, 24 h) ([1]; compound concentration 1 μM)	Structure (SMILES)	further results
< 1	< 50	< 50	< 50	< 50	50 to 90	< 50	< 50	< 50	< 1	< 50	< 50		COCCOc1ccc(Nc2ncc(F)c(Nc3cccc(NS(=O)(=O)c4c(F)c(F)c(F)c(F)c4C(F)(F)F)c3)n2)cc1 [Compound I-53, 2,3,4,5-tetrafluoro-N-(3-((5-fluoro-2-((4-(2-methoxyethoxy)phenyl)amino)pyrimidin-4-yl)amino)phenyl)-6-(trifluoromethyl)benzenesulfonamide]	pBTK inhibition (RAMOS, 24 h) ([1]; compound concentration 2.5 μM): X; IC50 ([3]; dose response, read-out: BTK Inhibition IC50): < 1 µM
	> 90	< 50	< 50	< 50	> 90	50 to 90	< 50	< 50	< 1	< 50	< 50	X	COCCOc1ccc(Nc2ncc(F)c(NCCCNS(=O)(=O)c3c(F)c(F)c(F)c(F)c3C(F)F)n2)cc1 [Compound I-52, 2-(difluoromethyl)-3,4,5,6-tetrafluoro-N-(3-((5-fluoro-2-((4-(2-methoxyethoxy)phenyl)amino)pyrimidin-4-yl)amino)propyl)benzenesulfonamide]	
